pIC50: −log10 of the molar value.
Tests used:
Trypanosoma cruzi [1] = assay: Antitrypanosomal activity against Trypanosoma cruzi Y amastigotes after 24 hrs by Gential violet staining-based assay; type: functional, organism-based
[2] = target: T1, Dihydroorotate dehydrogenase (fumarate) (Leishmania major, UniProt Q4QEW7); assay: Inhibition of recombinant oligo-histidine-tagged Leishmania major DHODH expressed in Escherichia coli BL21(DE3) cells using DHO as substrate measured after 60 secs; conditions: read-out: IC50
T1 sequence (Q4QEW7 whole entry): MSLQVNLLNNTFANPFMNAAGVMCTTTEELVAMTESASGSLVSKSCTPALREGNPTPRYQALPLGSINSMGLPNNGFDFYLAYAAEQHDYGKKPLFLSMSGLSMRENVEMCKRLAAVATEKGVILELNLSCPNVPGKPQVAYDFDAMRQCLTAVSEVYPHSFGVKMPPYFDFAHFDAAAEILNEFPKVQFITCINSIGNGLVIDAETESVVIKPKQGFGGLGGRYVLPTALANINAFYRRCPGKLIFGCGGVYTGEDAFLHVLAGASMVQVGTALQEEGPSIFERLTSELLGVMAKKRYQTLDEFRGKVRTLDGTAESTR

Leishmania amazonensis [3] = assay: Antileishmanial activity against Leishmania amazonensis MHOM/BR/77/LTB 0016 amastigotes infected in mouse peritoneal macrophages after 72 hrs by staining-based assay; type: functional, organism-based; conditions: MHOM/BR/77/LTB 0016, 72 h
Leishmania amazonensis [4] = assay: Antileishmanial activity against Leishmania amazonensis MHOM/BR/77/LTB 0016 promastigotes after 72 hrs by MTT assay; type: functional, organism-based; conditions: MHOM/BR/77/LTB 0016, 72 h
Trypanosoma brucei = assay: Antitrypanosomal activity against Trypanosoma brucei TC221 trypomastigotes after 24 hrs by Alamar Blue assay; type: functional, organism-based; conditions: TC221, 24 h
Trypanosoma congolense = assay: Antitrypanosomal activity against Trypanosoma congolense STIB 910 trypomastigotes after 24 hrs by Alamar Blue assay; type: functional, organism-based; conditions: STIB 910, 24 h
Leishmania donovani [5] = assay: Antileishmanial activity against Leishmania donovani MHOM/ET/67/L82 axenic amastigotes after 72 hrs by resazurin dye-based fluorescence assay; type: functional, organism-based; conditions: MHOM/ET/67/L82, 72 h
[6] = system: Trypanosoma brucei rhodesiense; assay: Antitrypanosomal activity against Trypanosoma brucei rhodesiense STIB 900 trypomastigotes after 72 hrs by resazurin dye-based fluorescence assay; type: functional, organism-based; conditions: STIB 900, 72 h
Trypanosoma cruzi [7] = assay: Antitrypanosomal activity against Trypanosoma cruzi Tulahuen trypomastigotes after 96 hrs by CPRG/Nonidet reagent based spectrophotometric method; type: functional, organism-based
[8] = target: T2, Dihydroorotate dehydrogenase (fumarate) (Leishmania major) (UniProt Q4QEW7); assay: Inhibition of recombinant oligo-histidine-tagged Leishmania major DHODH expressed in Escherichia coli BL21(DE3) cells at 100 uM using DHO as substrate measured after 60 secs
T2 sequence (whole entry): T1 sequence (Q4QEW7 whole entry)

[9] = system: Trypanosoma brucei rhodesiense; assay: Antitrypanosomal activity against Trypanosoma brucei rhodesiense STIB 900 trypomastigotes after 72 hrs by Alamar Blue assay; type: functional, organism-based; conditions: STIB 900, 72 h
Leishmania donovani [10] = assay: Antileishmanial activity against Leishmania donovani MHOM/ET/67/L82 amastigotes after 72 hrs by Alamar Blue assay; type: functional, organism-based; conditions: MHOM/ET/67/L82, 72 h
[11] = target: Dihydroorotate dehydrogenase (quinone), mitochondrial (Homo sapiens) (UniProt Q02127); assay: Inhibition of human DHODH at 100 uM
Leishmania amazonensis [12] = assay: Antileishmanial activity against Leishmania amazonensis IFLA/BR/1967/PH-8 promastigotes after 48 hrs by MTT assay; type: functional, organism-based; conditions: IFLA/BR/1967/PH-8, 48 h
Trypanosoma cruzi [13] = assay: Antitrypanosomal activity against Trypanosoma cruzi Tulahuen C2C4 trypomastigotes infected in rat skeletal myoblasts L-6 cells after 96 hrs by CPRG/Nonidet reagent based spectrophotometric method; type: functional, organism-based; conditions: Tulahuen C2C4, L6, 96 h
Leishmania amazonensis [14] = assay: Antileishmanial activity against Leishmania amazonensis promastigotes; type: functional, organism-based
[15] = target: T2, Dihydroorotate dehydrogenase (fumarate) (Leishmania major); assay: Binding affinity to Leishmania major DHODH assessed as change in melting temperature at 1000 uM by differential scanning fluorimetry-based ThermoFMN assay
[16] = target: T2, Dihydroorotate dehydrogenase (fumarate) (Leishmania major); assay: Binding affinity to Leishmania major DHODH assessed as change in melting temperature at 500 uM by differential scanning fluorimetry-based ThermoFMN assay
[17] = target: T2, Dihydroorotate dehydrogenase (fumarate) (Leishmania major); assay: Binding affinity to Leishmania major DHODH assessed as change in melting temperature at 100 uM by SYPRO orange dye-based differential scanning fluorimetry
[18] = target: T2, Dihydroorotate dehydrogenase (fumarate) (Leishmania major); assay: Binding affinity to Leishmania major DHODH assessed as change in melting temperature at 500 uM by SYPRO orange dye-based differential scanning fluorimetry
Leishmania braziliensis [19] = assay: Antileishmanial activity against Leishmania braziliensis promastigotes; type: functional, organism-based
[20] = target: T2, Dihydroorotate dehydrogenase (fumarate) (Leishmania major); assay: Binding affinity to Leishmania major DHODH assessed as change in melting temperature at 1000 uM by SYPRO orange dye-based differential scanning fluorimetry
[21] = target: T2, Dihydroorotate dehydrogenase (fumarate) (Leishmania major); assay: Binding affinity to Leishmania major DHODH assessed as change in melting temperature at 100 uM by differential scanning fluorimetry-based ThermoFMN assay
[22] = target: T2, Dihydroorotate dehydrogenase (fumarate) (Leishmania major); assay: Inhibition of recombinant oligo-histidine-tagged Leishmania major DHODH expressed in Escherichia coli BL21(DE3) cells at 150 uM using DHO as substrate measured after 60 secs
Leishmania infantum [23] = assay: Antileishmanial activity against Leishmania infantum MHOM/MA(BE)/6 promastigotes infected in mouse J774A.1 cells after 120 hrs by Giemsa staining-based assay; type: functional, organism-based; conditions: MHOM/MA(BE)/6, J774.A1, 120 h
Leishmania infantum [24] = assay: Antileishmanial activity against Leishmania infantum MHOM/MA(BE)/6 amastigotes infected in mouse J774A.1 cells after 120 hrs by Giemsa staining-based assay; type: functional, organism-based; conditions: MHOM/MA(BE)/6, J774.A1, 120 h
[25] = system: Trypanosoma brucei rhodesiense; assay: Antitrypanosomal activity against Trypanosoma brucei rhodesiense STIB900 trypomastigotes after 72 hrs by Alamar Blue assay; type: functional, organism-based; conditions: STIB 900, 72 h
Leishmania donovani [26] = assay: Antileishmanial activity against Leishmania donovani amastigotes; type: functional, organism-based
Trypanosoma cruzi [27] = assay: Antitrypanosomal activity against Trypanosoma cruzi trypomastigotes; type: functional, organism-based
[28] = system: Trypanosoma brucei rhodesiense; assay: Antitrypanosomal activity against Trypanosoma brucei rhodesiense STIB900 trypomastigotes; type: functional, organism-based
Trypanosoma cruzi [29] = assay: Antitrypanosomal activity against Trypanosoma cruzi amastigotes; type: functional, organism-based
Leishmania infantum [30] = assay: Antileishmanial activity against Leishmania infantum MHOM/BR/1972/LD promastigotes; type: functional, organism-based
Trypanosoma cruzi [31] = assay: Antitrypanosomal activity against Trypanosoma cruzi Y amastigotes infected in Swiss albino mouse measured on day 7 post infection by Gential violet staining-based assay; type: functional, organism-based; conditions: 168 h
Leishmania major [32] = assay: Antileishmanial activity against Leishmania major promastigotes; type: functional, organism-based
Leishmania major [33] = assay: Antileishmanial activity against Leishmania major amastigotes; type: functional, organism-based
Leishmania braziliensis [34] = assay: Antileishmanial activity against Leishmania braziliensis; type: functional, organism-based
Leishmania donovani [35] = assay: Antileishmanial activity against Leishmania donovani; type: functional, organism-based
Leishmania amazonensis [36] = assay: Antileishmanial activity against Leishmania amazonensis; type: functional, organism-based

Sequence of Dihydroorotate dehydrogenase (quinone), mitochondrial (Homo sapiens) (Q02127 whole entry): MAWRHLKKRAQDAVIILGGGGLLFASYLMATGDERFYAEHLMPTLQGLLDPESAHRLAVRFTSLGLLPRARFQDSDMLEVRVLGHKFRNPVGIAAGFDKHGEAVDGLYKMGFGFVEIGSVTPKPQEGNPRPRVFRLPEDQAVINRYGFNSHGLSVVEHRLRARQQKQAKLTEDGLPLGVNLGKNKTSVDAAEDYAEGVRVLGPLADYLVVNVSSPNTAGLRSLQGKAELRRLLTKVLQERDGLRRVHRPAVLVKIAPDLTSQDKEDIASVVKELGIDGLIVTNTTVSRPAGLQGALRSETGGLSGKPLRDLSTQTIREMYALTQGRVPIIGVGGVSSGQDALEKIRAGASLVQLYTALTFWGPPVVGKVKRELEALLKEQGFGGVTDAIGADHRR

Structure (SMILES): C=C[C@]1(C)C=C2CC[C@H]3[C@@](C)(CCC[C@]3(C)C(=O)O)[C@@H]2CC1
- pIC50 (Trypanosoma cruzi [1]): 3.41
- pIC50 [2]: 2.88

Structure (SMILES): CN1[C@@H]2C[C@H](OC(=O)[C@H](CO)c3ccccc3)C[C@H]1[C@@H]1O[C@@H]12
- pIC50 (Leishmania amazonensis [3]): < 4.60
- pIC50 (Leishmania amazonensis [4]): < 4.00
- pIC50 [2]: 3.10
- pIC50 (Trypanosoma brucei): < 4.00

Structure (SMILES): CC[C@H]1CN2CCc3cc(OC)c(OC)cc3[C@@H]2C[C@@H]1C[C@H]1NCCc2cc(OC)c(OC)cc21 [EMETINE]
- pIC50 (Trypanosoma congolense): 6.37
- pIC50 [2]: 2.97
- pIC50 (Trypanosoma brucei): 7.40

Structure (SMILES): C=C1C(=O)O[C@@H]2/C=C(\CO)CC/C=C(\C)C[C@H](OC(=O)C(=C)[C@@H](O)CO)[C@@H]12
- pIC50 (Leishmania donovani [5]): 4.82
- pIC50 [6]: 5.89
- pIC50 (Trypanosoma cruzi [7]): 4.77
- pIC50 [2]: 3.44

Structure (SMILES): Oc1cc(O)c2c(c1)O[C@H](c1ccc(O)c(O)c1)[C@@H](O)C2 [CIANIDANOL]
- inhibition [8]: 52%
- pIC50 [9]: 4.30
- pIC50 (Leishmania donovani [10]): 3.99
- inhibition [11]: 38%
- pIC50 [2]: 4.01
- pIC50 (Leishmania amazonensis [12]): 3.82
- pIC50 (Trypanosoma cruzi [13]): 3.51

Structure (SMILES): CC(=O)OCC1=C2[C@@H](OC(C)=O)C[C@@](C)(OC(C)=O)C(=O)CC[C@@]3(C)O[C@@H]3[C@H]2OC1=O
- pIC50 (Leishmania amazonensis [14]): 4.34
- ΔTm [15]: -0.7 °C
- ΔTm [16]: -0.41 °C
- ΔTm [17]: -0.27 °C
- ΔTm [18]: -0.47 °C
- pIC50 (Leishmania braziliensis [19]): 4.55
- inhibition [8]: 41%
- ΔTm [20]: -0.64 °C
- ΔTm [21]: -0.21 °C
- inhibition [11]: 0%
- pIC50 [2]: 4.51

Structure (SMILES): C=C1C(=O)O[C@@H]2[C@H]3C(C)=CC(=O)C3=C(C)C[C@@H](OC(=O)/C(C)=C/C)[C@@H]12
- inhibition [22]: 64%
- inhibition [11]: 3%
- pIC50 [2]: 4.57

Structure (SMILES): C/C=C(/C)C(=O)O[C@H]1[C@H](OC(C)=O)[C@]2(CO)[C@H](O)C[C@]3(C)C(=CC[C@@H]4[C@@]5(C)CC[C@H](O[C@@H]6O[C@H](C(=O)O)[C@@H](O[C@@H]7O[C@H](CO)[C@@H](O)[C@H](O)[C@H]7O)[C@H](O)[C@H]6O[C@@H]6O[C@H](CO)[C@@H](O)[C@H](O)[C@H]6O)[C@](C)(CO)[C@@H]5CC[C@]43C)[C@@H]2CC1(C)C [ESCIN IB]
- pIC50 (Leishmania infantum [23]): < 4.85
- pIC50 [2]: 3.32
- pIC50 (Leishmania infantum [24]): 5.86

Structure (SMILES): CC[C@H](CC[C@H](C)[C@H]1CC[C@H]2[C@@H]3CC=C4C[C@@H](O)CC[C@]4(C)[C@H]3CC[C@]12C)C(C)C
- pIC50 [25]: 4.06
- pIC50 (Leishmania donovani [10]): 4.56
- pIC50 [2]: 3.38
- pIC50 (Trypanosoma cruzi [13]): 4.45

Structure (SMILES): C=C(C)C(=O)O[C@H]1C[C@@]2(C)OC(=CC2=O)/C(CO)=C\[C@H]2OC(=O)C(=C)[C@H]12 [GOIAZENSOLIDE]
- ΔTm [15]: -1.13 °C
- ΔTm [16]: -0.84 °C
- ΔTm [17]: -0.73 °C
- ΔTm [18]: -4.19 °C
- ΔTm [20]: -6.51 °C
- ΔTm [21]: -0.32 °C
- pIC50 (Leishmania donovani [26]): 6.35
- pIC50 [2]: 3.81
- pIC50 (Trypanosoma cruzi [27]): 5.97
- pIC50 [28]: 7.15

Structure (SMILES): C=C1C(=O)O[C@@H]2/C=C(/CO)C3=CC(=O)[C@@](C)(C[C@@H](OC(=O)/C(C)=C\C)[C@@H]12)O3
- pIC50 (Trypanosoma cruzi [29]): 5.76
- pIC50 (Leishmania donovani [26]): 5.29
- pIC50 [2]: 3.19
- pIC50 [28]: 7.15
- pIC50 (Leishmania infantum [30]): 4.55

Structure (SMILES): COc1cc(O)c2c(=O)cc(-c3ccc(OC)c(OC)c3)oc2c1
- pIC50 (Trypanosoma cruzi [31]): 3.66
- pIC50 [2]: 3.66

Structure (SMILES): C[C@@H]1CC[C@H]2[C@@H](C)C(=O)O[C@@H]3O[C@@]4(C)CC[C@@H]1[C@]32OO4 [ARTEMISININ]
- ΔTm [15]: -0.4 °C
- ΔTm [16]: -0.35 °C
- ΔTm [17]: -0.14 °C
- ΔTm [18]: -0.22 °C
- inhibition [8]: 44%
- ΔTm [20]: -0.52 °C
- ΔTm [21]: -0.13 °C
- pIC50 (Leishmania major [32]): 6.12
- inhibition [11]: 0%
- pIC50 [2]: 3.76
- pIC50 (Leishmania major [33]): 6.52

Structure (SMILES): O=c1ccc2ccccc2o1 [COUMARIN]
- pIC50 (Leishmania braziliensis [34]): 3.47
- pIC50 (Leishmania donovani [35]): 3.47
- pIC50 (Leishmania amazonensis [36]): 3.47
- pIC50 [2]: 3.19
